For 51 molecules, ΔTm results are on record in ChEMBL document CHEMBL5308504, “Tm Shift (DSF) assay results for EUbOPEN Chemogenomics Library” (2023).

Molecules are shown by their SMILES. Several values for one entry are separate records, joined by “and”; a condition that tells them apart may be missing. Identical values can stand only once.

As a reminder, the ΔTm is the shift of the melting midpoint relative to a reference.

The target in assay [1] is Fibroblast growth factor receptor 3 (Homo sapiens) (UniProt P22607). Particulars: Compound concentration 20.0 uM, Protein concentration 2.0 uM, Result type QC Liability.
Description: Thermal Shift Assay. Domain: start/stop: P449-E759
For the next assay, the target named is T1, Peregrin (Homo sapiens) (UniProt P55201).
T1 sequence (whole entry): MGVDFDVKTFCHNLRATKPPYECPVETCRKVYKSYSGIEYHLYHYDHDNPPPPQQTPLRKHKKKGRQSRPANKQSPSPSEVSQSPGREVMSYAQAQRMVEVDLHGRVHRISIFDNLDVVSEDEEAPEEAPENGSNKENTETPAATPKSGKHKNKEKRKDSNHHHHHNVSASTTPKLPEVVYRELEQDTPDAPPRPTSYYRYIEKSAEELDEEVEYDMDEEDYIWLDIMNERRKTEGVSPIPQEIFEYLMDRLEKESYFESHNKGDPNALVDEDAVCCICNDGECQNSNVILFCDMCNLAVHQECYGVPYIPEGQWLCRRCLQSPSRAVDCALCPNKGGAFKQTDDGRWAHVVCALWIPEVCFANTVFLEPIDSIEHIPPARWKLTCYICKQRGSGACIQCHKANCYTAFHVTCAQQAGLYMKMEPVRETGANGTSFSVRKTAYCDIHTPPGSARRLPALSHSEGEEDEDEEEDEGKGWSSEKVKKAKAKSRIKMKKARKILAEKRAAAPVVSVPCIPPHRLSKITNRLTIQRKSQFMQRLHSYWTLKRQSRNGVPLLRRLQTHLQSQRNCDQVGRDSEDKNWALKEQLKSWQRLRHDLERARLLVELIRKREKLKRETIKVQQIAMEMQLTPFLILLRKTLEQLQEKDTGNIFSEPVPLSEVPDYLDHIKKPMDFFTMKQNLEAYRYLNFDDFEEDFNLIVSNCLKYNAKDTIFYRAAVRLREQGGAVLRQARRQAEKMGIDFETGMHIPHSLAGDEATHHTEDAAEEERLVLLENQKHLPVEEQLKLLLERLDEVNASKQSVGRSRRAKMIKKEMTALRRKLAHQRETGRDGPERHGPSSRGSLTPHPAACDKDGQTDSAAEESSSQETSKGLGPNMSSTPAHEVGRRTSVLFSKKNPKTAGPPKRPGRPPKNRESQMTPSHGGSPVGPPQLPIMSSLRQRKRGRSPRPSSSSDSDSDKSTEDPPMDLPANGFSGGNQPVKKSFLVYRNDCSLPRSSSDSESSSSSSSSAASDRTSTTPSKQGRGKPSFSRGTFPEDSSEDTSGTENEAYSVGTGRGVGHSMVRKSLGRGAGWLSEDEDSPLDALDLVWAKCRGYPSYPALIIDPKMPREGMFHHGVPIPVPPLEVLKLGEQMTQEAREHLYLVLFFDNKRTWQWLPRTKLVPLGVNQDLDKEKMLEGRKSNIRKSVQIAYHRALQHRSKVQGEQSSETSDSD
As to conditions: Compound concentration 20.0 uM, Protein concentration 2.0 uM, Result type QC Liability.

Sequence of Fibroblast growth factor receptor 3 (Homo sapiens) (P22607 23-806 limits assumed): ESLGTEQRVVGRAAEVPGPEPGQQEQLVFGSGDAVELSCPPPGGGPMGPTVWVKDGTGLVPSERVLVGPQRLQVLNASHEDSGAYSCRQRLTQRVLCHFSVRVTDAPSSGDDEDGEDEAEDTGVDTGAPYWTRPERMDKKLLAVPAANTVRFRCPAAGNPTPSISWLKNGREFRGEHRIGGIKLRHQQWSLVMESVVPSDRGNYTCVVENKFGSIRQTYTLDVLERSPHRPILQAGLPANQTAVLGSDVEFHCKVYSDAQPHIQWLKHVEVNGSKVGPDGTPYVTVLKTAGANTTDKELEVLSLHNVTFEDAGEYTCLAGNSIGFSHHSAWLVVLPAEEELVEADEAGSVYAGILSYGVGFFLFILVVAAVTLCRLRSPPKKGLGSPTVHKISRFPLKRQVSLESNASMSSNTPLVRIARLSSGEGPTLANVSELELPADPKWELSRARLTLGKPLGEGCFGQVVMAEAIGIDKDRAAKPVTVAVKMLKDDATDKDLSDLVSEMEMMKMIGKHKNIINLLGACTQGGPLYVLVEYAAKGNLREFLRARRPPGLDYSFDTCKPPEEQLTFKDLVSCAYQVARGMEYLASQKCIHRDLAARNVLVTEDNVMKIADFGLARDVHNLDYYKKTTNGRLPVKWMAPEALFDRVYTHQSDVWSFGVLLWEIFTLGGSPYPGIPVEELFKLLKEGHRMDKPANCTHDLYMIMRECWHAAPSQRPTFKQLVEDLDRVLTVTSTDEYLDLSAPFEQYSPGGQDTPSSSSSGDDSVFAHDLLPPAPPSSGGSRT

For `Cc1cc(OC2CCS(=O)(=O)CC2)cc(C)c1-c1cccc(COc2ccc(C(=O)O)c(F)c2)c1`, the ΔTm in assay [1] is 1.28 °C; on Peregrin (Homo sapiens), -2.62 °C.
Consider `COc1cc(C(N)=O)ccc1Nc1ncc2c(n1)N(CCC(C)C)[C@H](C)C(=O)N2C`, for which the ΔTm in assay [1] was 1.76 °C; at Peregrin (Homo sapiens), 1.82 °C.
As to `COc1cc(-c2cn(C)c(=O)c3cnccc23)cc(OC)c1CN(C)C`, the ΔTm came out at 0.44 °C in assay [1] and 1.79 °C on Peregrin (Homo sapiens).
With `COCCN1CCN(CCn2ccc(Nc3ncc4c(n3)-c3c(nn(C)c3-c3ccccc3)C[C@H]4C)n2)CC1`, the shift in melting temperature (ΔTm) in assay [1] was 3.58 °C; at Peregrin (Homo sapiens), -0.48 °C.
As to `COCCOCn1c(S(C)(=O)=O)nc2c1c(=O)n(C)c(=O)n2C`, the thermal shift (ΔTm) in assay [1] was 0.45 °C; on Peregrin (Homo sapiens) it was -2.72 °C.
As for `Nc1c(CC(=O)O)cccc1C(=O)c1ccc(Br)cc1`, the thermal shift (ΔTm) in assay [1] was 0.57 °C; at Peregrin (Homo sapiens), -2.36 °C.
On to `CC(=O)Nc1c(F)cc(C(=O)N[C@H]2CC[C@H](O)CC2)cc1O[C@@H](C)c1ccccc1`, for which the values for the ΔTm (in assay [1]; at Peregrin (Homo sapiens)) were 0.45 °C and -0.36 °C, respectively.
For the molecule `Clc1cccc(Nc2nccc(NCCCN3CCOCC3)n2)c1`, the shift in melting temperature (ΔTm) is 1.15 °C in assay [1] and -1.42 °C at Peregrin (Homo sapiens).
In the case of `CC#CC(=O)N1CCN(c2nc(-c3ccc(Oc4ccccc4)cc3)c(C(N)=O)s2)CC1`, the results for the ΔTm (in assay [1]; on Peregrin (Homo sapiens)) were -1.02 °C and -1.23 °C, respectively.
For `Cn1cc(NC(=O)c2ccc3nc4n(c3c2)CCCNC4=O)nc1C(=O)NC1CCCC1` the same measures were 1.76 °C and -0.88 °C.
Turning to `O=C(O)CCCCN(CCc1ccccc1OCc1ccc(CCc2ccccc2)cc1)Cc1ccc(C(=O)O)cc1`, the ΔTm in assay [1] was 0.8 °C; on Peregrin (Homo sapiens), -2.23 °C.
For `Clc1ccccc1C(c1ccccc1)(c1ccccc1)n1cccn1` the same measures were 0.25 °C and -3.65 °C.
As for `CNc1ncc2cc(-c3ccc(-c4cccc(C)n4)cc3Cl)c(=O)n(C[C@H]3OC[C@H](N)CO3)c2n1`, the figures for the thermal shift (ΔTm) (in assay [1]; on Peregrin (Homo sapiens)) were 1.85 °C and -2.41 °C, respectively.
Turning to `COc1ccccc1-c1cc(Nc2cccc(CS(N)(=O)=O)c2)ncn1`, the ΔTm was 0.74 °C in assay [1] and -0.77 °C on Peregrin (Homo sapiens).
With `CN(C)c1ncc2cc(-c3ccc(-c4ncccc4F)cc3Cl)c(=O)n(C[C@H]3OC[C@H](N)CO3)c2n1`, the results for the ΔTm (in assay [1]; on Peregrin (Homo sapiens)) were -0.14 °C and -1.55 °C, respectively.
Consider `CN[C@@H](C)C(=O)N[C@H](C(=O)N1CCC[C@H]1c1nc(C(=O)c2ccc(F)cc2)cs1)C1CCCCC1`, for which the ΔTm was 0.96 °C in assay [1] and -1.91 °C on Peregrin (Homo sapiens).
As to `N[C@H](C(=O)O)[C@@H]1CC(Cl)=NO1`, the thermal shift (ΔTm) is 0.45 °C in assay [1] and -1.19 °C on Peregrin (Homo sapiens).
Consider `CCc1nc(C2CCC2)n2nc(-c3ccccc3)[nH]c(=O)c12`, for which the results for the shift in melting temperature (ΔTm) (in assay [1]; on Peregrin (Homo sapiens)) were 0.69 °C and -2.47 °C, respectively.
`Cn1nc(C(=O)NCc2ccc(C(=O)O)cc2)cc1-c1ccc2[nH]ccc2c1`: the thermal shift (ΔTm) in assay [1] was 0.9 °C; at Peregrin (Homo sapiens), -1.95 °C.
For `Cc1c(N2CCNCC2)nc2ccc(Br)cc2c1C(=O)NC[C@H](CCC(=O)O)c1ccccc1Cl`, the values for the ΔTm (in assay [1]; on Peregrin (Homo sapiens)) were 0.57 °C and -2.38 °C, respectively.
As for `CO[C@H]1C[C@@H]2CC[C@@H](C)[C@@](O)(O2)C(=O)C(=O)N2CCCC[C@H]2C(=O)O[C@H]([C@H](C)C[C@@H]2CC[C@@H](O)[C@H](OC)C2)CC(=O)[C@H](C)/C=C(\C)[C@@H](O)[C@@H](OC)C(=O)[C@H](C)C[C@H](C)/C=C/C=C/C=C/1C`, the shift in melting temperature (ΔTm) in assay [1] is 0.26 °C; on Peregrin (Homo sapiens) it was -1.78 °C.
With `N=C(N)NCCC[C@H](NC(=O)CC1(CC(=O)N2CCN(C(c3ccccc3)c3ccccc3)CC2)CCCC1)C(=O)NCc1ccccc1`, the thermal shift (ΔTm) was 0.22 °C in assay [1] and -4.91 °C at Peregrin (Homo sapiens).
As for `CC(=O)Nc1nc(CN2CCC[C@H](Cc3cc(C)nc(C)c3)C2)cs1`, the ΔTm in assay [1] was 0.78 °C; on Peregrin (Homo sapiens), -1.25 °C.
As for `CCC(C(=O)Nc1ccc(-c2cc3ccccc3s2)c(C(N)=O)c1)c1nccs1` (configuration not stated), the ΔTm was 0.48 °C in assay [1] and -1.09 °C at Peregrin (Homo sapiens).
For `CN(C)C/C=C/C(=O)Nc1cccc(S(=O)(=O)N2CCC(NC(=O)c3n[nH]cc3NC(=O)c3c(Cl)cc(Cl)cc3Cl)CC2)c1`, the ΔTm is 6.8 °C in assay [1] and -0.81 °C on Peregrin (Homo sapiens).
For the molecule `Cc1nn(C)c(COc2ccc(N3CCN(S(=O)(=O)N(C)C)CC3)cc2)c1-c1cccc2c(CCCOc3cccc4ccccc34)c(C(=O)O)n(CCN3CCOCC3)c12`, the ΔTm in assay [1] was 0.47 °C; at Peregrin (Homo sapiens), -2.4 °C.
For `CC[C@@H]1C(=O)N(C)c2cnc(Nc3ccc(C(=O)NC4CCN(C)CC4)cc3OC)nc2N1C1CCCC1`, the ΔTm in assay [1] is 0.55 °C; on Peregrin (Homo sapiens), 1.16 °C.
Taken in the same sequence, the figures for `COc1cc(Oc2nc(-c3ccc(NC(=O)C4CCOC4)cc3)nn3c(C)nc(C)c23)cc(OC)c1OC` (configuration not stated) were 1.34 °C and -1.59 °C.
On to `COc1cc(O)c(C(CC(=O)N2C[C@H](C)C[C@H](C)C2)c2ccc3c(c2)OCO3)c(OC)c1` (some centres not stated), for which the thermal shift (ΔTm) came to 0.97 °C in assay [1] and 1.95 °C on Peregrin (Homo sapiens).
Take `Cc1nc2cccnc2n2c(-c3cc(C(C)(C)O)ncc3Cl)nnc12`: the thermal shift (ΔTm) in assay [1] is 1.25 °C; on Peregrin (Homo sapiens) it was -3.02 °C.
For `CCOC(=O)c1cc2cc(-c3cc(C(=O)NCc4ccc(C(=O)O)cc4)nn3C)ccc2[nH]1` the same measures were 0.83 °C and -3.42 °C.
Consider `COc1c(OCCCN2CCOCC2)ccc2c1N=C(NC(=O)c1cnc(N)nc1)N1CCN=C21`, for which the figures for the ΔTm (in assay [1]; at Peregrin (Homo sapiens)) were 0.63 °C and -0.93 °C, respectively.
As to `CC[C@@H](CO)Nc1nc(Nc2cccc(NC(=O)C(C)(C)C)c2)ncc1F`, the ΔTm is 2.58 °C in assay [1] and -1.26 °C at Peregrin (Homo sapiens).
For `COC(=O)c1ccc2c(c1)NC(=O)/C2=C(\Nc1ccc(-c2nccn2C)cc1)c1ccccc1` the same measures were 6.61 °C and -1.36 °C.
For `Cn1cc(-c2cnc3ccc4ccc(CS(=O)(=O)NCc5ccccn5)cc4c(=O)c3c2)cn1` the same measures were 3.77 °C and -1.66 °C.
As to `O=C(NC1CCNCC1)c1n[nH]cc1NC(=O)c1c(Cl)cccc1Cl`, the thermal shift (ΔTm) in assay [1] is 0.78 °C; on Peregrin (Homo sapiens), -1.28 °C.
As to `COc1nc2ccc([C@@](O)(c3ccc(Cl)cc3)c3cncn3C)cc2c(Cl)c1Cc1ccc(-n2cccn2)cc1`, the ΔTm in assay [1] is -1.77 °C; at Peregrin (Homo sapiens), -1.33 °C.
Taken in the same sequence, the figures for `CN1CCC(F)(Cn2cnc(-c3ccc(F)cn3)c2-c2ccnc3[nH]ccc23)CC1` were 0.5 °C and -0.88 °C.
On to `CC(=O)c1c(C)c2cnc(Nc3ccn(C)n3)nc2n(C2CCCC2)c1=O`, for which the shift in melting temperature (ΔTm) in assay [1] is -0.69 °C; at Peregrin (Homo sapiens) it was -0.34 °C.
For the molecule `CCc1nc(-c2cccc(C)c2)c(-c2ccncc2)s1`, the ΔTm is 0.65 °C in assay [1] and -0.75 °C on Peregrin (Homo sapiens).
Consider `CC(=O)c1ccc2c(c1)/C(=C(/NC1CCN(C)CC1)c1ccc3c(c1)OCO3)C(=O)N2`, for which the ΔTm in assay [1] is 0.39 °C; at Peregrin (Homo sapiens), -1.44 °C.
With `CC(=O)c1c(C)c2cnc(Nc3ccc(N4CCNCC4)cn3)nc2n(C2CCCC2)c1=O`, the ΔTm in assay [1] was 0.56 °C and 0.64 °C; on Peregrin (Homo sapiens) it was -1.97 °C and -1.31 °C.
With `CCOC(=O)c1ccc(CN(Cc2ccc(-c3cccc(S(C)(=O)=O)c3)cc2)S(=O)(=O)c2c(C)cc(C)cc2C)o1`, the values for the shift in melting temperature (ΔTm) (in assay [1]; on Peregrin (Homo sapiens)) were -1.46 °C and -3.02 °C, respectively.
As to `CN(C)C(=O)Cn1cc(-c2nc(C3(c4ccc(-c5cnc(N)nc5)cc4)CC3)no2)cn1`, the results for the shift in melting temperature (ΔTm) (in assay [1]; at Peregrin (Homo sapiens)) were 0.55 °C and -2.76 °C, respectively.
On to `CN(C)CCCNc1ccnc(Nc2cccc(Cl)c2)n1`, for which the ΔTm in assay [1] was 1.43 °C; on Peregrin (Homo sapiens) it was -1.77 °C.
Turning to `COc1cc(Nc2cnc(C#N)c(O[C@H](C)CN(C)C)n2)ncc1-c1cnn(C)c1`, the results for the thermal shift (ΔTm) (in assay [1]; on Peregrin (Homo sapiens)) were 1.26 °C and -0.27 °C, respectively.
`O=C(O)Cc1ccc(CCNS(=O)(=O)c2ccc(Cl)cc2)cc1`: the shift in melting temperature (ΔTm) is 0.43 °C in assay [1] and -2.91 °C at Peregrin (Homo sapiens).
Turning to `CCS(=O)(=O)c1cc2cc(C[C@](O)(CC(C)(C)c3ccc(F)cc3C(N)=O)C(F)(F)F)[nH]c2cn1`, the results for the ΔTm (in assay [1]; on Peregrin (Homo sapiens)) were 0.43 °C and -1.64 °C, respectively.
On to `Cc1nn(-c2ccccc2)c(Nc2ccccc2C(=O)O)c1-c1cc2nccnc2c(F)c1F`, for which the shift in melting temperature (ΔTm) in assay [1] was 1.95 °C; on Peregrin (Homo sapiens), -2.93 °C.
Take `Cc1nc2c(cc1F)c(-c1nnc3c(n1)NC(=O)C3(C)C)nn2Cc1cccc(F)c1F`: the ΔTm in assay [1] was 0.5 °C; on Peregrin (Homo sapiens), -2.09 °C.
Regarding `CC[C@H](CC(=O)O)n1c(=O)c2ncccc2n(Cc2cn(C)c3cc(C)cc(C)c23)c1=O`, the shift in melting temperature (ΔTm) in assay [1] was 0.98 °C and 0.62 °C; on Peregrin (Homo sapiens) it was -2.28 °C and -0.95 °C.
